Reference: the CheMixHub viscosity set
± gives the uncertainty stated by the source.

Experiment: xn = mol fraction of the nth substance listed

Work on `[Br-].[Na+]` + O yielded a viscosity (293.15 K, 101.3 kPa, x1 = 0.0009) of 1.005 ± 0.022 mPa·s, a viscosity (293.15 K, 101.3 kPa, x1 = 0.0018) of 1.007 ± 0.022 mPa·s and a viscosity (293.15 K, 101.3 kPa, x1 = 0.00893) of 1.027 ± 0.022 mPa·s. The viscosity (293.15 K, 101.3 kPa, x1 = 0.0177) was 1.055 ± 0.023 mPa·s, the viscosity (293.15 K, 101.3 kPa, x1 = 0.03478) was 1.131 ± 0.024 mPa·s and the viscosity (293.15 K, 101.3 kPa, x1 = 0.05127) was 1.235 ± 0.026 mPa·s. The viscosity (293.15 K, 101.3 kPa, x1 = 0.06722) was 1.368 ± 0.029 mPa·s, the viscosity (293.15 K, 101.3 kPa, x1 = 0.09755) was 1.746 ± 0.037 mPa·s and the viscosity (293.15 K, 101.3 kPa, x1 = 0.126) was 2.317 ± 0.05 mPa·s. The viscosity (298.15 K, 100 kPa, x1 = 0.00088) was 0.8936 ± 0.015 mPa·s, the viscosity (298.15 K, 100 kPa, x1 = 0.00351) was 0.895 ± 0.038 mPa·s and the viscosity (298.15 K, 100 kPa, x1 = 0.00368) was 0.9007 ± 0.015 mPa·s. The viscosity (298.15 K, 100 kPa, x1 = 0.00829) was 0.9176 ± 0.016 mPa·s, the viscosity (298.15 K, 100 kPa, x1 = 0.00879) was 0.9099 ± 0.039 mPa·s and the viscosity (298.15 K, 100 kPa, x1 = 0.0101) was 0.9211 ± 0.016 mPa·s. It also gave a viscosity (298.15 K, 100 kPa, x1 = 0.0146) of 0.9363 ± 0.016 mPa·s, a viscosity (298.15 K, 100 kPa, x1 = 0.0177) of 0.9479 ± 0.04 mPa·s and a viscosity (298.15 K, 100 kPa, x1 = 0.01952) of 0.9523 ± 0.016 mPa·s. For the same compound, the viscosity (298.15 K, 100 kPa, x1 = 0.02624) was 0.9808 ± 0.017 mPa·s, the viscosity (298.15 K, 100 kPa, x1 = 0.03489) was 1.022 ± 0.017 mPa·s and the viscosity (298.15 K, 100 kPa, x1 = 0.04115) was 1.054 ± 0.018 mPa·s. It also gave a viscosity (298.15 K, 100 kPa, x1 = 0.05064) of 1.112 ± 0.019 mPa·s, a viscosity (298.15 K, 100 kPa, x1 = 0.05382) of 1.186 ± 0.051 mPa·s and a viscosity (298.15 K, 100 kPa, x1 = 0.08817) of 1.474 ± 0.063 mPa·s. It also gave a viscosity (298.15 K, 101.3 kPa, x1 = 0.0009) of 0.8935 ± 0.019 mPa·s, a viscosity (298.15 K, 101.3 kPa, x1 = 0.0018) of 0.8956 ± 0.019 mPa·s and a viscosity (298.15 K, 101.3 kPa, x1 = 0.00893) of 0.9162 ± 0.019 mPa·s. The viscosity (298.15 K, 101.3 kPa, x1 = 0.0177) was 0.9443 ± 0.02 mPa·s, the viscosity (298.15 K, 101.3 kPa, x1 = 0.03478) was 1.016 ± 0.022 mPa·s and the viscosity (298.15 K, 101.3 kPa, x1 = 0.05127) was 1.111 ± 0.024 mPa·s. For the same compound, the viscosity (298.15 K, 101.3 kPa, x1 = 0.06722) was 1.231 ± 0.026 mPa·s, the viscosity (298.15 K, 101.3 kPa, x1 = 0.09755) was 1.563 ± 0.033 mPa·s and the viscosity (298.15 K, 101.3 kPa, x1 = 0.126) was 2.052 ± 0.044 mPa·s. The viscosity (303.15 K, 101.3 kPa, x1 = 0.0009) was 0.8006 ± 0.017 mPa·s, the viscosity (303.15 K, 101.3 kPa, x1 = 0.0018) was 0.803 ± 0.017 mPa·s and the viscosity (303.15 K, 101.3 kPa, x1 = 0.00893) was 0.824 ± 0.017 mPa·s. The viscosity (303.15 K, 101.3 kPa, x1 = 0.0177) was 0.8517 ± 0.018 mPa·s, the viscosity (303.15 K, 101.3 kPa, x1 = 0.03478) was 0.9187 ± 0.019 mPa·s and the viscosity (303.15 K, 101.3 kPa, x1 = 0.05127) was 1.006 ± 0.021 mPa·s. For the same compound, the viscosity (303.15 K, 101.3 kPa, x1 = 0.06722) was 1.114 ± 0.024 mPa·s, the viscosity (303.15 K, 101.3 kPa, x1 = 0.09755) was 1.407 ± 0.03 mPa·s and the viscosity (303.15 K, 101.3 kPa, x1 = 0.126) was 1.833 ± 0.039 mPa·s. For the same compound, the viscosity (303.74 K, 100 kPa, x1 = 0.03489) was 0.9102 ± 0.015 mPa·s, the viscosity (303.75 K, 100 kPa, x1 = 0.05064) was 0.9936 ± 0.017 mPa·s and the viscosity (303.86 K, 100 kPa, x1 = 0.04115) was 0.9393 ± 0.016 mPa·s. The viscosity (306.42 K, 100 kPa, x1 = 0.00829) was 0.7716 ± 0.013 mPa·s, the viscosity (308.15 K, 101.3 kPa, x1 = 0.0009) was 0.7225 ± 0.015 mPa·s and the viscosity (308.15 K, 101.3 kPa, x1 = 0.0018) was 0.7249 ± 0.015 mPa·s. It also gave a viscosity (308.15 K, 101.3 kPa, x1 = 0.00893) of 0.7458 ± 0.016 mPa·s, a viscosity (308.15 K, 101.3 kPa, x1 = 0.0177) of 0.7722 ± 0.016 mPa·s and a viscosity (308.15 K, 101.3 kPa, x1 = 0.03478) of 0.8359 ± 0.018 mPa·s. The viscosity (308.15 K, 101.3 kPa, x1 = 0.05127) was 0.9163 ± 0.019 mPa·s, the viscosity (308.15 K, 101.3 kPa, x1 = 0.06722) was 1.014 ± 0.022 mPa·s and the viscosity (308.15 K, 101.3 kPa, x1 = 0.09755) was 1.277 ± 0.027 mPa·s. For the same compound, the viscosity (308.15 K, 101.3 kPa, x1 = 0.126) was 1.649 ± 0.035 mPa·s, the viscosity (308.44 K, 100 kPa, x1 = 0.01952) was 0.7804 ± 0.013 mPa·s and the viscosity (308.74 K, 100 kPa, x1 = 0.00088) was 0.7144 ± 0.012 mPa·s. It also gave a viscosity (308.75 K, 100 kPa, x1 = 0.02624) of 0.7947 ± 0.014 mPa·s, a viscosity (308.94 K, 100 kPa, x1 = 0.0146) of 0.7534 ± 0.013 mPa·s and a viscosity (309.24 K, 100 kPa, x1 = 0.0101) of 0.7342 ± 0.013 mPa·s. The viscosity (310.75 K, 100 kPa, x1 = 0.05064) was 0.8742 ± 0.015 mPa·s, the viscosity (311.42 K, 100 kPa, x1 = 0.04115) was 0.8205 ± 0.014 mPa·s and the viscosity (311.74 K, 100 kPa, x1 = 0.00368) was 0.6805 ± 0.012 mPa·s. The viscosity (313.15 K, 101.3 kPa, x1 = 0.0009) was 0.6562 ± 0.014 mPa·s, the viscosity (313.15 K, 101.3 kPa, x1 = 0.0018) was 0.6587 ± 0.014 mPa·s and the viscosity (313.15 K, 101.3 kPa, x1 = 0.00893) was 0.679 ± 0.014 mPa·s. It also gave a viscosity (313.15 K, 101.3 kPa, x1 = 0.0177) of 0.7046 ± 0.015 mPa·s, a viscosity (313.15 K, 101.3 kPa, x1 = 0.03478) of 0.7648 ± 0.016 mPa·s and a viscosity (313.15 K, 101.3 kPa, x1 = 0.05127) of 0.8392 ± 0.018 mPa·s. The viscosity (313.15 K, 101.3 kPa, x1 = 0.06722) was 0.929 ± 0.02 mPa·s, the viscosity (313.15 K, 101.3 kPa, x1 = 0.09755) was 1.165 ± 0.025 mPa·s and the viscosity (313.15 K, 101.3 kPa, x1 = 0.126) was 1.494 ± 0.032 mPa·s. It also gave a viscosity (318.15 K, 101.3 kPa, x1 = 0.0009) of 0.5992 ± 0.013 mPa·s, a viscosity (318.15 K, 101.3 kPa, x1 = 0.0018) of 0.6017 ± 0.013 mPa·s and a viscosity (318.15 K, 101.3 kPa, x1 = 0.00893) of 0.6213 ± 0.013 mPa·s. It also gave a viscosity (318.15 K, 101.3 kPa, x1 = 0.0177) of 0.646 ± 0.014 mPa·s, a viscosity (318.15 K, 101.3 kPa, x1 = 0.03478) of 0.7032 ± 0.015 mPa·s and a viscosity (318.15 K, 101.3 kPa, x1 = 0.05127) of 0.7724 ± 0.016 mPa·s. For the same compound, the viscosity (318.15 K, 101.3 kPa, x1 = 0.06722) was 0.855 ± 0.018 mPa·s, the viscosity (318.15 K, 101.3 kPa, x1 = 0.09755) was 1.069 ± 0.023 mPa·s and the viscosity (318.15 K, 101.3 kPa, x1 = 0.126) was 1.363 ± 0.029 mPa·s. The viscosity (323.02 K, 100 kPa, x1 = 0.00088) was 0.5507 ± 0.0095 mPa·s, the viscosity (323.15 K, 100 kPa, x1 = 0.00351) was 0.5505 ± 0.024 mPa·s and the viscosity (323.15 K, 100 kPa, x1 = 0.00879) was 0.5603 ± 0.024 mPa·s. For the same compound, the viscosity (323.15 K, 100 kPa, x1 = 0.0177) was 0.5834 ± 0.025 mPa·s, the viscosity (323.15 K, 100 kPa, x1 = 0.05382) was 0.7427 ± 0.032 mPa·s and the viscosity (323.15 K, 100 kPa, x1 = 0.08817) was 0.9292 ± 0.04 mPa·s. For the same compound, the viscosity (323.15 K, 101.3 kPa, x1 = 0.0009) was 0.5496 ± 0.012 mPa·s, the viscosity (323.15 K, 101.3 kPa, x1 = 0.0018) was 0.5519 ± 0.012 mPa·s and the viscosity (323.15 K, 101.3 kPa, x1 = 0.00893) was 0.5708 ± 0.012 mPa·s. It also gave a viscosity (323.15 K, 101.3 kPa, x1 = 0.0177) of 0.5948 ± 0.013 mPa·s, a viscosity (323.15 K, 101.3 kPa, x1 = 0.03478) of 0.6489 ± 0.014 mPa·s and a viscosity (323.15 K, 101.3 kPa, x1 = 0.05127) of 0.7136 ± 0.015 mPa·s. It also gave a viscosity (323.15 K, 101.3 kPa, x1 = 0.06722) of 0.7896 ± 0.017 mPa·s, a viscosity (323.15 K, 101.3 kPa, x1 = 0.09755) of 0.9845 ± 0.021 mPa·s and a viscosity (323.15 K, 101.3 kPa, x1 = 0.126) of 1.248 ± 0.026 mPa·s.
